Values of other authors in patent US10716774B1, “Pharmaceutical compositions containing isotretinoin with improved dissolution profile and enhanced stability” (Yale Pharmaceuticals LLC, priority 2018, dated 2020).

Conditions: after multiple dosing, in man

plasma concentration relative to that of the parent drug: about 4 fold
SMILES: CC1=C(/C=C/C(C)=C/C=C/C(C)=C/C(=O)O)C(C)(C)CCC1=O [4-oxo-isotretinoin]
